According to paper PMC9592857, “Voltage dependence of the cannabinoid CB1 receptor” (Frontiers in Pharmacology, 2022):
Where two headings read alike, the source gives them in different places.

Assays:
Assay type in all cases: cell-based
[1] = biological target: T1, CB1 receptor (Homo sapiens, UniProt P21554)
T1 construct: expressed in transfected cells; host or cells: Xenopus laevis oocytes injected with cRNA; plasmid was a gift of Ken Mackie

[2] = biological target: T1, CB1 receptor; conditions: for mean time constant of deactivation: same oocyte at both potentials, 10 oocytes
[3] = biological target: T2, GIRK channel (Homo sapiens, UniProt P48051+P48549); assay: Receptor-independent effect on GIRK channels in oocytes expressing the GIRK channel but not the CB1 receptor; conditions: for effect of application on GIRK currents: 10 µM, oocyte expressing the GIRK channel only; for direct effect on the GIRK channel: oocytes without CB1 receptor, any membrane potential
T2 construct: expressed in transfected cells; host or cells: Xenopus laevis oocytes injected with cRNA
T2 sequence (P48549 1-501): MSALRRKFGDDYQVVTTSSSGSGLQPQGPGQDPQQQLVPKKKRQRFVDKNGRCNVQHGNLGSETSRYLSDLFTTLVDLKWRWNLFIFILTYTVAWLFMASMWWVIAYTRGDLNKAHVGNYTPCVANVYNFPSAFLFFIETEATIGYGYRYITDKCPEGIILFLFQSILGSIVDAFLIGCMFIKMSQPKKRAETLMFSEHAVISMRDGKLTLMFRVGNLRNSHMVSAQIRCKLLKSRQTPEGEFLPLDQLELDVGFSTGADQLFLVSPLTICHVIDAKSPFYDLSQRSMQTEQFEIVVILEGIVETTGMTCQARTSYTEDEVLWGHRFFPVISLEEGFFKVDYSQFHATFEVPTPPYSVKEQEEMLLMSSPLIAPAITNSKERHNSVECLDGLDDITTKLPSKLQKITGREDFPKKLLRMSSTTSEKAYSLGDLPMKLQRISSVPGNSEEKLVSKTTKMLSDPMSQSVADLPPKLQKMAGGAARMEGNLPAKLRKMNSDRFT
T2 sequence (P48051 1-423): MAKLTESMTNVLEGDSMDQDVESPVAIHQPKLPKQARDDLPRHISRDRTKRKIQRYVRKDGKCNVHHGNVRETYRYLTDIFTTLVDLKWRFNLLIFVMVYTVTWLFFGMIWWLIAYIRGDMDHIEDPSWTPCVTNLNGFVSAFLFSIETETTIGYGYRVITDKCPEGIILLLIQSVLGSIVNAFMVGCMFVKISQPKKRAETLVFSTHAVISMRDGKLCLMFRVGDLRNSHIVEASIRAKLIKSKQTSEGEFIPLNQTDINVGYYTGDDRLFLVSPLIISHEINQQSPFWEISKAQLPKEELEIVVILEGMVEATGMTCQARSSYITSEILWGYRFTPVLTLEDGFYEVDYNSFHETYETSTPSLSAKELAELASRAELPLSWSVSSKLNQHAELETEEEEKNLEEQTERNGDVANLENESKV
Experimental: Figure S1. […] (A) A representative recording from an oocyte expressing the GIRK channel. […] (B) Current -Voltage (I-V) curve of IK before (black) and after (red) the application of 2-AG. The oocytes were voltage clamped to -80 mV and the currents after depolarizing pulses to various holding potentials from –80 mV to +40 mV at 10 mV increments were measured. Data is mean ± SEM from 7 oocytes. The difference between the two conditions is not significant (paired t-test, p>0.11 for all voltages).
(§1) Figure S2. Effect of AEA on GIRK channels. (A) A representative recording from an oocyte expressing the GIRK channel. […] (B) Current-voltage I-V curve of IK before (black) and after (red) the application of AEA. The oocytes were voltage clamped to -80 mV and the currents after depolarizing pulses to various holding potentials from –80 mV to +40 mV at 10 mV increments were measured. Data is mean ± SEM from 7 oocytes. The difference between the two conditions is not significant (paired t-test, p>0.13 for all voltages).
as §1, with “S3.” for “S2.”, “THC” for “AEA”, “(B)” for “(B) Current-voltage”, “THC.” for “AEA.”, “5” for “7”, “p>0.23” for “p>0.13”

T1 sequence (P21554 whole entry): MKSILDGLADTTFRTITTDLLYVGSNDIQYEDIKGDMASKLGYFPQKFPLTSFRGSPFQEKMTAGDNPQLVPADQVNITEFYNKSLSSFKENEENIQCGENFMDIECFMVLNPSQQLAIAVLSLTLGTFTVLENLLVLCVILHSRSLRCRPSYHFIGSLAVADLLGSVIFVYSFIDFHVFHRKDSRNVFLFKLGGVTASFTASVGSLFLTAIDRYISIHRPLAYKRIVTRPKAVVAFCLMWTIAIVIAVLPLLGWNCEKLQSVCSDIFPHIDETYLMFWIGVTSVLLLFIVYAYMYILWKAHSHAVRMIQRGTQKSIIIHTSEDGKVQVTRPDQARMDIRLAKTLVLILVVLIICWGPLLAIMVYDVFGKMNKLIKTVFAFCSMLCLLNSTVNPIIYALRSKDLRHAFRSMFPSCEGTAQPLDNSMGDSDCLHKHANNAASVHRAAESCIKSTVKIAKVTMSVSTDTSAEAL

CCCCC/C=C\C/C=C\C/C=C\C/C=C\CCCC(=O)OC(CO)CO [2-AG, 2-Arachidonoylglycerol]
enhancement of potency toward the CB1 receptor by depolarization ([1]; +40 mV versus -80 mV): about 4 fold | V50 (the voltage that shows half-maximal effect), Boltzmann fit ([1]; relative activation by 100 nM agonist, -80 mV to +40 mV): −45 mV | mean time constant of deactivation ([2]; +40 mV): 42.6 ± 19.8 | dissociation time constant from the receptor (decay of GIRK current after washout) ([2]; -80 mV, both agonists in the same oocytes, n = 20, mean±SD): 30.4 ± 11.7 s | mean time constant of deactivation ([2]; -80 mV): 25.4 ± 14.9 | effect of application on GIRK currents [3]: did not evoke GIRK currents or inhibited basal GIRK currents | direct effect on the GIRK channel [3]: do not have any direct effect

CCCCC/C=C\C/C=C\C/C=C\C/C=C\CCCC(=O)NCCO [AEA, anandamide]
effect of application on GIRK currents [3]: did not evoke GIRK currents or inhibited basal GIRK currents | direct effect on the GIRK channel [3]: do not have any direct effect

(-)-Δ9-Tetrahydrocannabinol [THC]
effect of application on GIRK currents [3]: did not evoke GIRK currents or inhibited basal GIRK currents | direct effect on the GIRK channel [3]: do not have any direct effect
